# In US11787810B2, “Diacylglyceride O-acyltransferase 2 inhibitors” (Merck Sharp & Dohme Corp., priority 2020, dated 2023):
# Target: human DGAT2 (hDGAT2) (Homo sapiens (Human), UniProt Q96PD7)
# Test: DGAT2 enzymatic activity assay (13C18-triolein formation, LC/MS/MS)
# Type: biochemical
# Conditions: hDGAT2 Sf-9 membrane prep, 25 μM diolein, 5 μM 13C oleoyl-CoA; read-out: Human DGAT2 IC50
# Protocol: Sf-9 insect cells were maintained in Grace's insect cell culture medium with 10% heated-inactivated fetal bovine serum, 1% Pluronic F-68 and 0.14 μg/ml Kanamycine sulfate at 27° C. in a shaker incubator. After infection with untagged baculovirus expressing human DGAT2 (hDGAT2) at multiplicity of infection (MOI) 3 for 48 hours, cells were harvested. Cell pellets were suspended in buffer containing 10 mM Tris-HCl pH 7.5, 1 mM EDTA, 250 mM sucrose and Complete Protease Inhibitor Cocktail (Sigma Aldrich), and sonicated on ice. Cell debris were removed by centrifugation at 2000×g for 15 minutes. Membrane fractions were isolated by ultracentrifugation (100,000×g), resuspended in the same buffer, and frozen (−80° C.) for later use. The protein concentration was determined with the Pierce™ BCA Protein Assay Kit (Thermo Fisher Scientific). Expression of protein levels was analyzed by immunoblotting with rabbit anti-DGAT2 antibody (Abcam, ab102831) and donkey anti-rabbit IgG H&L Alexa Fluor® 647 (Abcam, ab150075) followed by detection using Typhoon FLA9000 (GE Healthcare).
# LC/MS/MS analyses were performed using Thermal Fisher's LX4-TSQ Vantage system. This system consists of an Agilent binary high-performance liquid chromatography (HPLC) pumps and a TSQ Vantage triple quadrupole MS/MS instrument. For each sample, 2 μL samples from the top organic layer of in-plate liquid-liquid extraction were injected onto a Thermo Betabasic C4 column (2.1 mm×20 mm, 5 μm particle size). The samples were then eluted using the following conditions; mobile phase: Isopropanol:acetonitrile/10 mM ammonium formate=50/35/15 (v/v/v), flow rate: 0.8 mL/min, temperature: 25° C. Data was acquired in positive mode using a heated electrospray ionization (HESI) interface. The operational parameters for the TSQ Vantage MS/MS instrument were a spray voltage of 3000 V, capillary temperature of 280° C., vaporizer temperature 400° C., sheath gas 45 arbitrary unit, Aux gas 10 arbitrary units, S-lens 165 and collision gas 1.0 mTorr. […] (SRM) chromatograms of ^13C18-triolein (Q1: 920.8>Q3:621.3) and internal standard ^13C21-triolein (Q1: 923.8>Q3:617.3) were collected for 33 sec. The peak area was integrated by Xcalibur Quan software. The ratio between the ^13C18triolein generated in the reaction and spiked in internal standard ^13C21-triolein was used to generate percentage inhibition and IC50 values. Compound percentage inhibition was calculated by the following formula: Inhibition %=1-[(compound response−low control)/(high control−low control)]×100%. Potent compounds were titrated and IC50 were calculated by 4 parameter sigmoidal curve fitting formula.
# DGAT2 activity was determined by measuring the amount of enzymatic product ^13C18-triolein (^13C-1,2,3-Tri(cis-9-octadecenoyl)glycerol) using the membrane prep mentioned above. The assay was carried out in ABgene 384-well assay plates in a final volume of 25 μL at rt. The assay mixture contained the following: assay buffer (100 mM Tris·Cl, pH 7.0, 20 mM MgCl2, 5% ethanol), 25 μM of diolein, 5 μM of ^13C oleoyl-CoA and 8 ng/μL of DGAT2 membrane.
# human DGAT2 (hDGAT2), sequence (Q96PD7 whole entry): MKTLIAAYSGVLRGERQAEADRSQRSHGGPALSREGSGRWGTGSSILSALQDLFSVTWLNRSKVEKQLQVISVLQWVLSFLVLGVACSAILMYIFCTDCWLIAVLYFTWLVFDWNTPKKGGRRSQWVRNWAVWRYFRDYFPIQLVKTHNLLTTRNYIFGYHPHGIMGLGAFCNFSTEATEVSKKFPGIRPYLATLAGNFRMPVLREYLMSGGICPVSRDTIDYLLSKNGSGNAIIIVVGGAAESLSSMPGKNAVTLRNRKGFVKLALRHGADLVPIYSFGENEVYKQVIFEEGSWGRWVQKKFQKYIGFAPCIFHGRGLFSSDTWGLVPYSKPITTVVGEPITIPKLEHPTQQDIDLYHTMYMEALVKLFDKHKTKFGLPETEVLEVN
row,Compound,IC50 [nM]
1,"CC1(C#N)CC(n2nc(-c3cccc(OC(F)F)c3)c3ncc(C(=O)NC4(C)CS(=O)(=O)C4)cc32)C1 (single isomer, unassigned) [Example 87b, 1-(3-cyano-3-methylcyclobutyl)-3-(3-(difluoromethoxy)phenyl)-N-(3-methyl-1,1-dioxidothietan-3-yl)-1H-pyrazolo[4,3-b]pyridine-6-carboxamide]",270
2,"CC(O)C(C)NC(=O)c1cnc2c(-c3cccc(OC(F)F)c3)nn(C(C)C)c2c1 (single isomer, unassigned) [Example 45d, 3-(3-(difluoromethoxy)phenyl)-N-(3-hydroxybutan-2-yl)-1-isopropyl-1H-pyrazolo[4,3-b]pyridine-6-carboxamide]",2730
3,"CC(C)n1nc(-c2cccc(OC(F)F)c2)c2ncc(C(=O)NC3(C(C)(C)O)CCOC3)cc21 (single isomer, unassigned) [Example 47a, 3-(3-(difluoromethoxy)phenyl)-N-(3-(2-hydroxypropan-2-yl)tetrahydrofuran-3-yl)-1-isopropyl-1H-pyrazolo[4,3-b]pyridine-6-carboxamide]",1410
4,"COC1(c2cccc(-c3nn(C(C)C)c4cc(C(=O)NC5(C)CS(=O)(=O)C5)cnc34)c2)CC1 [Example 128, 1-isopropyl-3-(3-(1-methoxycyclopropyl)phenyl)-N-(3-methyl-1,1-dioxidothietan-3-yl)-1H-pyrazolo[4,3-b]pyridine-6-carboxamide]",5450
5,"CC1(NC(=O)c2cnc3c(-c4cccc(OC(F)F)c4)nn([C@@H]4COC[C@H]4O)c3c2)CS(=O)(=O)C1 (single isomer, unassigned) [Example 53b, 3-(3-(difluoromethoxy)phenyl)-1-((trans)-4-hydroxytetrahydrofuran-3-yl)-N-(3-methyl-1,1-dioxidothietan-3-yl)-1H-pyrazolo[4,3-b]pyridine-6-carboxamide]",132
6,"CC1(NC(=O)c2cnc3c(-c4cccc(OC(F)F)c4)nn(C4CCOC(C)(C)C4)c3c2)CS(=O)(=O)C1 (single isomer, unassigned) [Example 77a, 3-(3-(difluoromethoxy)phenyl)-1-(2,2-dimethyltetrahydro-2H-pyran-4-yl)-N-(3-methyl-1,1-dioxidothietan-3-yl)-1H-pyrazolo[4,3-b]pyridine-6-carboxamide]",140
7,"CC(C)n1nc(-c2cccc(OC(F)F)c2)c2ncc(C(=O)NC3(C(C)O)CCOCC3)cc21 (single isomer, unassigned) [Example 73a, 3-(3-(difluoromethoxy)phenyl)-N-(4-(1-hydroxyethyl)tetrahydro-2H-pyran-4-yl)-1-isopropyl-1H-pyrazolo[4,3-b]pyridine-6-carboxamide]",119
8,"CC1(NC(=O)c2cnc3c(-c4cccc(OC(F)F)c4)nn(CC(O)C(F)(F)F)c3c2)CS(=O)(=O)C1 (single isomer, unassigned) [Example 67b, 3-(3-(difluoromethoxy)phenyl)-N-(3-methyl-1,1-dioxidothietan-3-yl)-1-(3,3,3-trifluoro-2-hydroxypropyl)-1H-pyrazolo[4,3-b]pyridine-6-carboxamide]",90
9,"N[C@H]1CCC[C@H]1NC(=O)c1cnc2c(-c3cccc(OC(F)F)c3)cn(-c3ncc(F)cn3)c2c1 [Example 20, N-((1R,2S)-2-aminocyclopentyl)-3-(3-(difluoromethoxy)phenyl)-1-(5-fluoropyrimidin-2-yl)-1H-pyrrolo[3,2-b]pyridine-6-carboxamide]",189

# Next, values leading:
row,IC50 [nM],Compound
1,71,"CCC(C)n1nc(-c2cccc(OC(F)F)c2)c2ncc(C(=O)NC3(C)CS(=O)(=O)C3)cc21 (single isomer, unassigned) [Example 66a, 3-[3-(difluoromethoxy)phenyl]-N-(3-methyl-1,1-dioxo-thietan-3-yl)-1-sec-butyl-pyrazolo[4,3-b]pyridine-6-carboxamide]"
2,50,"CC(C)n1nc(-c2cccc(OC(F)F)c2)c2ncc(C(=O)NC3(C(C)(C)O)CCOC3)cc21 (single isomer, unassigned) [Example 47b, 3-(3-(difluoromethoxy)phenyl)-N-(3-(2-hydroxypropan-2-yl)tetrahydrofuran-3-yl)-1-isopropyl-1H-pyrazolo[4,3-b]pyridine-6-carboxamide]"
3,47,"CC(O)C(C)n1nc(-c2cccc(OC(F)F)c2)c2ncc(C(=O)NC3(C)CS(=O)(=O)C3)cc21 (single isomer, unassigned) [Example 78d, 3-(3-(difluoromethoxy)phenyl)-1-(3-hydroxybutan-2-yl)-N-(3-methyl-1,1-dioxidothietan-3-yl)-1H-pyrazolo[4,3-b]pyridine-6-carboxamide]"
4,41,"CC(C)n1nc(-c2cccc(OC(F)F)c2)c2ncc(C(=O)NC(CO)C(F)(F)F)cc21 (racemic) [Example 52, 3-(3-(difluoromethoxy)phenyl)-1-isopropyl-N-(1,1,1-trifluoro-3-hydroxypropan-2-yl)-1H-pyrazolo[4,3-b]pyridine-6-carboxamide]"
5,38,"CC(C)n1nc(-c2cccc(OC(F)F)c2)c2ncc(C(=O)NC3(CO)CCOC3)cc21 (single isomer, unassigned) [Example 39b, 3-[3-(difluoromethoxy)phenyl]-N-[3-(hydroxymethyl)tetrahydrofuran-3-yl]-1-isopropyl-pyrazolo[4,3-b]pyridine-6-carboxamide]"
6,37,"C[C@]1(NC(=O)c2cnc3c(-c4cccc(OC(F)F)c4)nn(C4CCOC4)c3c2)CCS(=O)(=O)C1 (single isomer, unassigned) [Example 60b]"
7,31,"CC(C)n1nc(-c2cccc(OC(F)F)c2)c2ncc(C(=O)NC3(C(C)O)CCOC3)cc21 (single isomer, unassigned) [Example 50b, 3-(3-(difluoromethoxy)phenyl)-N-(3-(1-hydroxyethyl)tetrahydrofuran-3-yl)-1-isopropyl-1H-pyrazolo[4,3-b]pyridine-6-carboxamide]"
8,29,"CC1(NC(=O)c2cnc3c(-c4cccc(OC(F)F)c4)nn(C4CCOCC4F)c3c2)CS(=O)(=O)C1 (single isomer, unassigned) [Example 75a, 3-(3-(difluoromethoxy)phenyl)-1-(3-fluorotetrahydro-2H-pyran-4-yl)-N-(3-methyl-1,1-dioxidothietan-3-yl)-1H-pyrazolo[4,3-b]pyridine-6-carboxamide]"
9,15,"CC(C)n1nc(-c2cccc(OC(F)F)c2)c2ncc(C(=O)NC(C)(C)C(C)O)cc21 (single isomer, unassigned) [Example 46a, 3-(3-(difluoromethoxy)phenyl)-N-(3-hydroxy-2-methylbutan-2-yl)-1-isopropyl-1H-pyrazolo[4,3-b]pyridine-6-carboxamide]"

# Same assay, conditions: table head without 'Human'; same membrane assay; read-out: DGAT2 IC50
row,Compound,IC50 [nM]
1,"CC(n1nc(-c2cc(OC(F)F)ncc2F)c2cnc(C(=O)NC3(C)CS(=O)(=O)C3)cc21)C(C)(C)O (single isomer, unassigned) [Example 133a, 3-(2-(difluoromethoxy)-5-fluoropyridin-4-yl)-1-(3-hydroxy-3-methylbutan-2-yl)-N-(3-methyl-1,1-dioxidothietan-3-yl)-1H-pyrazolo[4,3-c]pyridine-6-carboxamide]",862
2,"CC(n1nc(-c2cc(OC(F)F)ccc2F)c2ncc(C(=O)NC3(C)CS(=O)(=O)C3)cc21)C(C)(C)O (single isomer, unassigned) [Example 131a, 3-(5-(difluoromethoxy)-2-fluorophenyl)-1-(3-hydroxy-3-methylbutan-2-yl)-N-(3-methyl-1,1-dioxidothietan-3-yl)-1H-pyrazolo[4,3-b]pyridine-6-carboxamide]",11
3,"CC(n1nc(-c2cc(OC(F)F)ccc2F)c2ncc(C(=O)NC3(C)CS(=O)(=O)C3)cc21)C(C)(C)O (single isomer, unassigned) [Example 131b, 3-(5-(difluoromethoxy)-2-fluorophenyl)-1-(3-hydroxy-3-methylbutan-2-yl)-N-(3-methyl-1,1-dioxidothietan-3-yl)-1H-pyrazolo[4,3-b]pyridine-6-carboxamide]",110
